pIC50: −log10 of the molar value.
Experiments:
Format in all cases: biochemical
[1] = biological target: Pim-1 (Homo sapiens (Human), UniProt P11309); assay: Pim-1 kinase assay; conditions: 1 mM ATP; read-out: Pim1 IC50
Protocol: Supplementation of the STOP buffer with beads and stopping the reactions were done under reduced light. Prior to the stopping reactions STOP buffer with beads was pre-incubated for 1 h in the dark at room temperature. After stopping the reactions, plates were incubated for 1 h in the dark at room temperature before reading on a PHERAstar FS plate reader (BMG Labtech) under reduced light.

[2] = biological target: Pim-2 (Homo sapiens (Human), UniProt Q9P1W9); assay: Pim-2 kinase assay; conditions: 1 mM ATP; read-out: Pim2 IC50
Protocol: Pim-2 kinase assay-20 μL reactions were run in white 384 well polystyrene plates dotted with 0.8 μL compound/DMSO in the assay buffer (50 mM Tris, pH 7.5, 0.01% Tween-20, 5 mM MgCl2, 0.01% BSA, 5 mM DTT), containing 0.05 μM Fluorescein-labeled CREBtide peptide substrate (Invitrogen PV3508), 1 mM ATP, and 1 nM enzyme (Invitrogen PV3649) for 2 h at 25° C. Reactions were stopped by addition of 10 μL TR-FRET Dilution Buffer (Invitrogen PV3574) with 30 mM EDTA and 1.5 nM LanthaScreen Tb-CREB pSer133 antibody (Invitrogen PV3566). After 30 min. incubation at room temperature, plates were read on a PHERAstar FS plate reader (BMG Labtech).
Although the above in vitro assays are conducted at 1 mM ATP compounds can also be evaluated for potency and in vitro activity against PIM targets utilizing Km conditions, where the concentration of ATP is set to the Km value and the assay is more sensitive to PIM inhibition activity.

[3] = biological target: Pim-3 (Homo sapiens (Human), UniProt Q86V86); assay: Pim-3 kinase assay; conditions: 1 mM ATP; read-out: Pim3 IC50
Protocol: Pim-1 and Pim-3 kinase assays-20 μL reactions were run in white 384 well polystyrene plates dotted with 0.8 μL compound/DMSO in the assay buffer (50 mM Tris, pH 7.5, 0.01% Tween-20, 5 mM MgCl2, 0.01% BSA, 5 mM DTT), containing 0.05 μM Biotin-labeled BAD peptide substrate (AnaSpec 62269), 1 mM ATP, and […] (Pim-1, Invitrogen PV3503) or […] (Pim-3, Millipore 14-738) enzyme for 1 h at 25° C. Reactions were stopped by addition of 10 μL STOP Buffer (150 mM Tris, pH=7.5, 150 mM NaCl, 75 mM EDTA, 0.01% Tween-20, 0.3% BSA) supplemented with Phospho-Bad (Ser112) Antibody (Cell Signaling 9291) diluted 666-fold, and Streptavidin donor beads (PerkinElmer 6760002) along with Protein-A acceptor beads (PerkinElmer 6760137) at 15 μg/mL each. Supplementation of the STOP buffer with beads and stopping the reactions were done under reduced light. Prior to the stopping reactions STOP buffer with beads was pre-incubated for 1 h in the dark at room temperature. After stopping the reactions, plates were incubated for 1 h in the dark at room temperature before reading on a PHERAstar FS plate reader (BMG Labtech) under reduced light.

Pim-2, sequence (Q9P1W9 whole entry): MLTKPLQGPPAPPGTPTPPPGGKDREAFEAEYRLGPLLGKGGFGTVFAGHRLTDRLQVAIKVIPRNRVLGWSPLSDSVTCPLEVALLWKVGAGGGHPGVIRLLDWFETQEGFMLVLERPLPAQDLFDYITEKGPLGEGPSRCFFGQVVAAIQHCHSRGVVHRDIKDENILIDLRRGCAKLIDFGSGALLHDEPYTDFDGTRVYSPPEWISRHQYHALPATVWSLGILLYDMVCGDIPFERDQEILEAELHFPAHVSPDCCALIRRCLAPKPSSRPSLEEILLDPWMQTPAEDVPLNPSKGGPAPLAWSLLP
Pim-1, sequence (P11309 whole entry): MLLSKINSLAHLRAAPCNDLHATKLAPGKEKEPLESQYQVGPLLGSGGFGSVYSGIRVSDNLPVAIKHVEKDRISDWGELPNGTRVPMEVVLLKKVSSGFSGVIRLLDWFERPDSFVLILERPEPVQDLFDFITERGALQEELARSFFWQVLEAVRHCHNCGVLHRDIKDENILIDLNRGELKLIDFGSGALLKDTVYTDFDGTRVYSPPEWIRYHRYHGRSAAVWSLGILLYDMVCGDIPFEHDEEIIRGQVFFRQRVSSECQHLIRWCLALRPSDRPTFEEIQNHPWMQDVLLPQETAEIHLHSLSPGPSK

Row | Compound | pIC50 [1] | pIC50 [2] | pIC50 [3]
1 | C[C@H]1CN(c2c(NC(=O)c3nc(-c4c(F)cccc4F)c(F)cc3N)cnc3c2CCO3)C[C@@H](N)[C@@H]1O [Example 71, 3-Amino-N-{4-[(3R,4R,5S)-3-amino-4-hydroxy-5-methylpiperidin-1-yl]-2,3-dihydrofuro[2,3-b]pyridin-5-yl}-6-(2,6-difluorophenyl)-5-fluoropyridine-2-carboxamide] | ≥ 7.00 | ≥ 7.00 | ≥ 7.00
2 | CS(=O)(=O)c1cc(F)c(-c2nc(C(=O)Nc3cnc4c(c3N3CCC[C@H](N)C3)CCC4O)ccc2F)c(F)c1 (single isomer, unassigned) [61 (Diastereoisomer 1)] | ≥ 7.00 | < 5.70 | < 7.40
3 | N[C@@H]1CN(c2c(NC(=O)c3ccc(F)c(-c4c(F)cccc4F)n3)cnc3c2CCC3O)C[C@H](C2CC2)[C@H]1O (single isomer, unassigned) [68 (Diastereoisomer 1)] | ≥ 7.00 | ≥ 7.00 | ≥ 7.00
4 | Nc1sc(-c2c(F)cccc2F)nc1C(=O)Nc1cnc2c(c1N1CCC[C@H](N)C1)CCC2O (single isomer, unassigned) [15 (Diastereoisomer 1)] | ≥ 7.00 | ≥ 7.00 | ≥ 7.00
5 | COCc1cc(F)c(-c2nc(C(=O)Nc3cnc4c(c3N3C[C@H](C)C[C@H](N)C3)CCC4O)ccc2F)c(F)c1 (single isomer, unassigned) [64 (Diastereoisomer 1)] | ≥ 7.00 | ≥ 7.00 | ≥ 7.00
6 | Nc1sc(-c2c(F)cccc2F)nc1C(=O)Nc1cnc2c(c1N1CC[C@H](O)[C@@H](N)C1)CCC2 (single isomer, unassigned) [Example 24, 5-Amino-N-{4-[3,4-trans-3-amino-4-hydroxypiperidin-1-yl]-6,7-dihydro-5H-cyclopenta[b]pyridin-3-yl}-2-(2,6-difluorophenyl)-1,3-thiazole-4-carboxamide] | ≥ 7.00 | < 5.70 | ≥ 7.00
7 | C[C@H]1CN(c2c(NC(=O)c3nc(-c4c(F)cccc4F)sc3N)cnc3c2CCC3O)C[C@@H](N)[C@@H]1O (single isomer, unassigned) [49 (Diastereoisomer 1)] | ≥ 7.00 | ≥ 7.00 | ≥ 7.00
8 | C[C@@H]1C[C@H](N)CN(c2c(NC(=O)c3ccc(F)c(-c4c(F)cc(OC5CCCOC5)cc4F)n3)cnc3c2CCC3O)C1 (single isomer, unassigned) [70 (Diastereoisomer 1)] | ≥ 7.00 | ≥ 7.00 | ≥ 7.00
9 | C[C@H]1CN(c2c(NC(=O)c3nc(-c4c(F)cccc4F)sc3N)cnc3c2CCC3)C[C@@H](N)[C@@H]1O [Example 28, 5-Amino-N-{4-[(3R,4R,5S)-3-amino-4-hydroxy-5-methylpiperidin-1-yl]-6,7-dihydro-5H-cyclopenta[b]pyridin-3-yl}-2-(2,6-difluorophenyl)-1,3-thiazole-4-carboxamide] | ≥ 7.00 | ≥ 7.00 | ≥ 7.00
10 | Nc1cc(F)c(-c2c(F)cccc2F)nc1C(=O)Nc1cnc2c(c1N1CCC[C@H](N)C1)CCCN2 [Example 32, 3-Amino-N-{4-[(3S)-3-aminopiperidin-1-yl]-5,6,7,8-tetrahydro-1,8-naphthyridin-3-yl}-6-(2,6-difluorophenyl)-5-fluoropyridine-2-carboxamide] | ≥ 7.00 | ≥ 7.00 | ≥ 7.00
11 | CS(=O)(=O)c1cc(F)c(-c2nc(C(=O)Nc3cnc4c(c3N3CCC[C@H](N)C3)CCC4O)ccc2F)c(F)c1 (single isomer, unassigned) [61 (Diastereoisomer 2)] | ≥ 7.00 | 6.00 to 7.00 | ≥ 7.00
12 | N[C@H]1CCCN(c2c(NC(=O)c3ccc(F)c(-c4c(F)cccc4F)n3)cnc3c2CCC3)C1 [Example 21, N-{4-[(3S)-3-Aminopiperidin-1-yl]-6,7-dihydro-5H-cyclopenta[b]pyridin-3-yl}-6-(2,6-difluorophenyl)-5-fluoropyridine-2-carboxamide] | ≥ 7.00 | ≥ 7.00 | ≥ 7.00
13 | N[C@H]1CCCN(c2c(NC(=O)c3ccc(F)c(-c4c(F)cccc4F)n3)cnc3c2CCCN3)C1 [Example 33, N-{4-[(3S)-3-Aminopiperidin-1-yl]-5,6,7,8-tetrahydro-1,8-naphthyridin-3-yl}-6-(2,6-difluorophenyl)-5-fluoropyridine-2-carboxamide] | ≥ 7.00 | 6.00 to 7.00 | ≥ 7.00
14 | Nc1cc(F)c(-c2c(F)cccc2F)nc1C(=O)Nc1cnc2c(c1N1CCC[C@H](N)C1)CCO2 [Example 12, 3-Amino-N-{4-[(3S)-3-aminopiperidin-1-yl]-2,3-dihydrofuro[2,3-b]pyridin-5-yl}-6-(2,6-difluorophenyl)-5-fluoropyridine-2-carboxamide] | ≥ 7.00 | ≥ 7.00 | ≥ 7.00
15 | Nc1sc(-c2c(F)cccc2F)nc1C(=O)Nc1cnc2c(c1N1CCC[C@H](N)C1)CCCN2 [Example 31, 5-Amino-N-{4-[(3S)-3-aminopiperidin-1-yl]-5,6,7,8-tetrahydro-1,8-naphthyridin-3-yl}-2-(2,6-difluorophenyl)-1,3-thiazole-4-carboxamide] | ≥ 7.00 | ≥ 7.00 | ≥ 7.00
16 | Nc1ncc(-c2c(F)cccc2F)nc1C(=O)Nc1cnc2c(c1N1CCC[C@H](N)C1)CCC2O (single isomer, unassigned) [62 (Diastereoisomer 1)] | ≥ 7.00 | 6.00 to 7.00 | ≥ 7.00
17 | N[C@H]1CCCN(c2c(NC(=O)c3csc(-c4c(F)cccc4F)n3)cnc3c2CCC3O)C1 (single isomer, unassigned) [16 (Diastereoisomer 1)] | ≥ 7.00 | < 5.70 | ≥ 7.00
18 | C[C@H]1CN(c2c(NC(=O)c3ccc(F)c(-c4c(F)cccc4F)n3)cnc3c2CCC3O)C[C@@H](N)[C@@H]1O (single isomer, unassigned) [37 (Diastereoisomer 1)] | ≥ 7.00 | ≥ 7.00 | ≥ 7.00
19 | Nc1sc(-c2c(F)cccc2F)nc1C(=O)Nc1cnc2[nH]ncc2c1N1CCC[C@H](N)C1 [Example 34, 5-Amino-N-{4-[(3S)-3-aminopiperidin-1-yl]-1H-pyrazolo[3,4-b]pyridin-5-yl}-2-(2,6-difluorophenyl)-1,3-thiazole-4-carboxamide] | ≥ 7.00 | < 5.70 | ≥ 7.00
20 | C[C@H]1CN(c2c(NC(=O)c3ccc(F)c(-c4c(F)cccc4F)n3)cnc3c2CCC3)C[C@@H](N)[C@@H]1O [Example 52, N-{4-[(3R,4R,5S)-3-Amino-4-hydroxy-5-methylpiperidin-1-yl]-6,7-dihydro-5H-cyclopenta[b]pyridin-3-yl}-6-(2,6-difluorophenyl)-5-fluoropyridine-2-carboxamide] | ≥ 7.00 | ≥ 7.00 | ≥ 7.00
21 | C[C@@H]1C[C@H](N)CN(c2c(NC(=O)c3ccc(F)c(-c4c(F)cccc4F)n3)cnc3c2CCO3)C1 [Example 39, N-{4-[(3S,5R)-3-Amino-5-methylpiperidin-1-yl]-2,3-dihydrofuro[2,3-b]pyridin-5-yl}-6-(2,6-difluorophenyl)-5-fluoropyridine-2-carboxamide] | ≥ 7.00 | ≥ 7.00 | ≥ 7.00
22 | COc1ccc(F)c(-c2nc(C(=O)Nc3cnc4c(c3N3C[C@H](C)C[C@H](N)C3)CCC4O)ccc2F)c1F (single isomer, unassigned) [56 (Diastereoisomer 2)] | ≥ 7.00 | ≥ 7.00 | ≥ 7.00
